Reference: patent EP4122499A1, “FIBROBLAST ACTIVATION PROTEIN INHIBITORS AND USE THEREOF” (3B Pharmaceuticals GmbH, priority 2021, dated 2023)

What was measured:
Recombinant human DPP4 = target: T1, Recombinant human DPP4 (Homo sapiens, UniProt P27487); assay: DPP4 protease activity assay; format: biochemical; details: 20 µM GP-AMC substrate
T1 construct: purchased R&D systems 9168-SE
Experimental: The PREP activity assay was performed using the FACS buffer (PBS including 1% FBS, Sigma-Aldrich, Cat# D8537). […] The DPP4 activity assay was performed in DPP assay buffer (25 mM Tris, pH 8.0).
Four parameter logistic (4PL) curve fitting and pIC50 calculations were performed using ActivityBase software.

Human recombinant FAP [1] = target: T2, Human recombinant FAP (Homo sapiens, UniProt Q12884); assay: Surface plasmon resonance assay (Biacore T200, single cycle kinetics); format: binding; details: SPR, 25°C
T2 sequence (Q12884 1-760): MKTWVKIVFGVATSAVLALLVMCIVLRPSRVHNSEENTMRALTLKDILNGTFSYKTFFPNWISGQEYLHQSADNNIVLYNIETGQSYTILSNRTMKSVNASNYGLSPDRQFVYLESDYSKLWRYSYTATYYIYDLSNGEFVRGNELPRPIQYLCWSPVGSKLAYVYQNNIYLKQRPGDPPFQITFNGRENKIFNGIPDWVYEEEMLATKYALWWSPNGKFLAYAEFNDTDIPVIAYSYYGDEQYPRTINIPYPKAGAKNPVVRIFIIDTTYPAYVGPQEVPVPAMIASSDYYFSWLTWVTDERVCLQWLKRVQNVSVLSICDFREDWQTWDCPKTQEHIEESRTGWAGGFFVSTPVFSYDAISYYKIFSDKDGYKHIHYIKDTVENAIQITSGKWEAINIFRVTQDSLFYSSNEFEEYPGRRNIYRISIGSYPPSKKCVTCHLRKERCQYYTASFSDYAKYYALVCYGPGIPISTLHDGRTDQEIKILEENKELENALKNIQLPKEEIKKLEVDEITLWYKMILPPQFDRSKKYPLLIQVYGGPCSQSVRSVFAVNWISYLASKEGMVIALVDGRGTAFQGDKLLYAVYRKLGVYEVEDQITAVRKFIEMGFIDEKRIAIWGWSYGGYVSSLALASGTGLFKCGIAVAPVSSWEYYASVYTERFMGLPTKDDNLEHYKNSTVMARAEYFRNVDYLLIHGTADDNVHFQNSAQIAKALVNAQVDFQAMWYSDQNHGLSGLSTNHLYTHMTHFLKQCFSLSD
Method in brief: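 Human recombinant FAP (20 µg/mL) was captured on anti-FAP antibody immobilized on a CM5 chip, and compounds were run in single-cycle kinetics at 25 °C in HBST with 0.1% DMSO, starting from 500 nM. Sensorgrams were corrected against a reference flow cell and for baseline drift. kon, koff, KD and t1/2 came from a 1:1 Langmuir fit, with pKD = −log KD.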

Human recombinant FAP [2] = target: T2, Human recombinant FAP; assay: FRET-based FAP protease activity assay (human); format: biochemical; parameters: purchased R&D systems 3715-SE; details: FRET-peptide substrate, 37°C
Experimental: In order to determine the inhibitory activity a FRET-based FAP protease activity assay was established.
25 µL of a 30 µM substrate solution, diluted in assay buffer, was added. […] Four parameter logistic (4PL) curve fitting and pIC50 calculations were performed using ActivityBase software (IDBS).

T1 sequence (P27487 whole entry): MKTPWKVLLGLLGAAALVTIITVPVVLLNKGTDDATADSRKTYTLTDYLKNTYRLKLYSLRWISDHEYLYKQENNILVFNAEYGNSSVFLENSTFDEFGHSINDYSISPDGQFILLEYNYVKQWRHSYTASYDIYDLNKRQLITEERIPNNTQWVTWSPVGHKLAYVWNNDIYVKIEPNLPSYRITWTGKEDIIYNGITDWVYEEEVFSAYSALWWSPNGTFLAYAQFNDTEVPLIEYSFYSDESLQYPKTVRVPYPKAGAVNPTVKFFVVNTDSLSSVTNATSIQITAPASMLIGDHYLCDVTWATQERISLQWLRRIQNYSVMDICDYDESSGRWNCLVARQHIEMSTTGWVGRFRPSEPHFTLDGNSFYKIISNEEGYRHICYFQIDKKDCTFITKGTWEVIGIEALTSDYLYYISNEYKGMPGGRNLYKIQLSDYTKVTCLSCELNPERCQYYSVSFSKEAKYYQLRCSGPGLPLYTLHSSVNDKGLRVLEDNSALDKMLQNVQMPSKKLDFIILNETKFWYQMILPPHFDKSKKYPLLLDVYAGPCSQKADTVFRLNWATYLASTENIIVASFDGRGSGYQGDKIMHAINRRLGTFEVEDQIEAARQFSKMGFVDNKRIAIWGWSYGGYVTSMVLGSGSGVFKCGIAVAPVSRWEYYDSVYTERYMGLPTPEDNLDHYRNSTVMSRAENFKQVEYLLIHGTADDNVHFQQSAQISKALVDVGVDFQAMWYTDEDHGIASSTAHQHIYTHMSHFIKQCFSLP

O=C(O)CN1CCN(CC(=O)O)CCN(CC(=O)N2CCN(CCNC(=O)c3ccc(-c4ccc5nccc(C(=O)NCC(=O)N6CCC[C@H]6C(=O)c6nc7ccccc7o6)c5c4)cn3)CC2)CCN(CC(=O)O)CC1 [drawing 361]
pIC50 (DPP4) (Recombinant human DPP4): <6
pKD (Biacore) (Human recombinant FAP [1]; 1:1 Langmuir binding model): 8.7
HL [min] (Biacore) (Human recombinant FAP [1]; half-life): 4.1 min
pIC50 (Activity) (Human recombinant FAP [2]): 8.4
